Reference: PMC6437697 (Journal of Medicinal Chemistry, 2019)

What was measured:
Experiment in all cases: KINOMEscan
Type in all cases: binding
Conditions in all cases: read-out: % control activity remaining
TLK1 = target: T1, TLK1 (Homo sapiens, UniProt Q9UKI8)
T1 construct: purchased Eurofins DiscoverX KINOMEscan
T1 sequence (Q9UKI8 1-766): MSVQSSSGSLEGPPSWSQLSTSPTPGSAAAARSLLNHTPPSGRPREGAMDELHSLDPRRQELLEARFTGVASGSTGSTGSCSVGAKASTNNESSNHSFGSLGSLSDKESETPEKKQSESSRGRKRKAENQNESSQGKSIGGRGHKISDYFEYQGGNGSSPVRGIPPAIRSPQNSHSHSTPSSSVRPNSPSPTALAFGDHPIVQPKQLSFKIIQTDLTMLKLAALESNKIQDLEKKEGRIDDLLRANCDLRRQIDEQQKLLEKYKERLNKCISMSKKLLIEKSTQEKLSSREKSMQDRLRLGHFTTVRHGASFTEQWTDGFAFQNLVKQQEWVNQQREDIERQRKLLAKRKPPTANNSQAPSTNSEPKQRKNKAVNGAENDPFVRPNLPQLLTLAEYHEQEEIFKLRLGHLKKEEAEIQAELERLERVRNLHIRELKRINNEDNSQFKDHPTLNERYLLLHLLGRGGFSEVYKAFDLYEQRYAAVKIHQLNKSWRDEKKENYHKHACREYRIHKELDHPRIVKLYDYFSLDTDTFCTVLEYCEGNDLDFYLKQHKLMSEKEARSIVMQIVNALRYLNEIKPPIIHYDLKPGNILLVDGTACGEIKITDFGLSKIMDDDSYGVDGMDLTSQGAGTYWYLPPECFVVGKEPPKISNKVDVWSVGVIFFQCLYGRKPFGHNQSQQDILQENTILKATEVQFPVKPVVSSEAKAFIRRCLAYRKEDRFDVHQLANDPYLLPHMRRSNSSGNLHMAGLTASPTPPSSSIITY

BMPR1A = target: T2, BMPR1A (Homo sapiens, UniProt P36894)
T2 construct: purchased Eurofins DiscoverX KINOMEscan
T2 sequence (P36894 24-532): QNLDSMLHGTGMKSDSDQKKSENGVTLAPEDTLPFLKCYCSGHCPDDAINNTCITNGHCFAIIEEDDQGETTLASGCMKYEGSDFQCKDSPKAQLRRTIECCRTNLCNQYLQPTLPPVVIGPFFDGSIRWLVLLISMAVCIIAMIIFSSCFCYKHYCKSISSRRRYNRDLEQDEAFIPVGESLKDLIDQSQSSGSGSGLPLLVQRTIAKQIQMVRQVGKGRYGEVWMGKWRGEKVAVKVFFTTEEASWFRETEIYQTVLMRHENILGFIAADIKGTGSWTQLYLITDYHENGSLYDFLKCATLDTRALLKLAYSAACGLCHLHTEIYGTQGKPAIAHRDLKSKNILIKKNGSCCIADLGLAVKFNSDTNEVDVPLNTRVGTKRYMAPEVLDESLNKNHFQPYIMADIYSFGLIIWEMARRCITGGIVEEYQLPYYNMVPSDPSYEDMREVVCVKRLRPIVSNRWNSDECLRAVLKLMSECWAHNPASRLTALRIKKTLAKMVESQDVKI

PIK3CA = target: T3, PIK3CA (Homo sapiens, UniProt P42336)
T3 construct: purchased Eurofins DiscoverX KINOMEscan
T3 sequence (P42336 whole entry): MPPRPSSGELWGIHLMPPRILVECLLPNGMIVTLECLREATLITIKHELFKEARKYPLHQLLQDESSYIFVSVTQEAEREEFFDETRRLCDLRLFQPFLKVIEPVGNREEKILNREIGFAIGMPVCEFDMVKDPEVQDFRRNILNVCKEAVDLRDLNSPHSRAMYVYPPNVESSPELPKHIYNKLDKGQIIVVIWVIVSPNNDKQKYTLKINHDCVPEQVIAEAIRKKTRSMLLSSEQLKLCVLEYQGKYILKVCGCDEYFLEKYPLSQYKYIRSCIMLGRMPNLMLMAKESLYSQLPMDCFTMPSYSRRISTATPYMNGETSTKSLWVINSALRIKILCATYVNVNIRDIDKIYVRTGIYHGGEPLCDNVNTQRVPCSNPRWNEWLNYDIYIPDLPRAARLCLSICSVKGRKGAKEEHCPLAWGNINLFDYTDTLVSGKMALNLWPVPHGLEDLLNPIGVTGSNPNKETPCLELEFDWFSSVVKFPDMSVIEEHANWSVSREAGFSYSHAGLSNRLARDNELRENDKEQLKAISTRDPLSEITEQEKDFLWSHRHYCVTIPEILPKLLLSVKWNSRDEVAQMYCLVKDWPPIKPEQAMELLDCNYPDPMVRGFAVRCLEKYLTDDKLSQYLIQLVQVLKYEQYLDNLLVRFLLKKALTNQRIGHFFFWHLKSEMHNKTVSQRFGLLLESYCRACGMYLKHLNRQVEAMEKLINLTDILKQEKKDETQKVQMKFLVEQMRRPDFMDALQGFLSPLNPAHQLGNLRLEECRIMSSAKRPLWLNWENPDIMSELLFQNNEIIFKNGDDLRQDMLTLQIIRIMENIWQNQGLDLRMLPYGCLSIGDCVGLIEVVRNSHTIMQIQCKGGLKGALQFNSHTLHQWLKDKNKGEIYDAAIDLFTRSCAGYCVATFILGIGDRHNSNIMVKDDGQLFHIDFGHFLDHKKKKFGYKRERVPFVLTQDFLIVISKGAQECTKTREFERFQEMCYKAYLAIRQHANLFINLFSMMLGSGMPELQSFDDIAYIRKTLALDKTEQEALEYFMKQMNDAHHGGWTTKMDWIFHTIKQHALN

PIK3CA(Q546K) = target: T4, PIK3CA(Q546K) (Homo sapiens, UniProt P42336, Q546K)
T4 construct: purchased Eurofins DiscoverX KINOMEscan
T4 sequence (P42336 whole entry Q546K): as the sequence (P42336 whole entry) above, with Q546K counted along it

YSK4 = target: T5, YSK4 (Homo sapiens, UniProt Q56UN5)
T5 construct: purchased Eurofins DiscoverX KINOMEscan
T5 sequence (Q56UN5 1-1328): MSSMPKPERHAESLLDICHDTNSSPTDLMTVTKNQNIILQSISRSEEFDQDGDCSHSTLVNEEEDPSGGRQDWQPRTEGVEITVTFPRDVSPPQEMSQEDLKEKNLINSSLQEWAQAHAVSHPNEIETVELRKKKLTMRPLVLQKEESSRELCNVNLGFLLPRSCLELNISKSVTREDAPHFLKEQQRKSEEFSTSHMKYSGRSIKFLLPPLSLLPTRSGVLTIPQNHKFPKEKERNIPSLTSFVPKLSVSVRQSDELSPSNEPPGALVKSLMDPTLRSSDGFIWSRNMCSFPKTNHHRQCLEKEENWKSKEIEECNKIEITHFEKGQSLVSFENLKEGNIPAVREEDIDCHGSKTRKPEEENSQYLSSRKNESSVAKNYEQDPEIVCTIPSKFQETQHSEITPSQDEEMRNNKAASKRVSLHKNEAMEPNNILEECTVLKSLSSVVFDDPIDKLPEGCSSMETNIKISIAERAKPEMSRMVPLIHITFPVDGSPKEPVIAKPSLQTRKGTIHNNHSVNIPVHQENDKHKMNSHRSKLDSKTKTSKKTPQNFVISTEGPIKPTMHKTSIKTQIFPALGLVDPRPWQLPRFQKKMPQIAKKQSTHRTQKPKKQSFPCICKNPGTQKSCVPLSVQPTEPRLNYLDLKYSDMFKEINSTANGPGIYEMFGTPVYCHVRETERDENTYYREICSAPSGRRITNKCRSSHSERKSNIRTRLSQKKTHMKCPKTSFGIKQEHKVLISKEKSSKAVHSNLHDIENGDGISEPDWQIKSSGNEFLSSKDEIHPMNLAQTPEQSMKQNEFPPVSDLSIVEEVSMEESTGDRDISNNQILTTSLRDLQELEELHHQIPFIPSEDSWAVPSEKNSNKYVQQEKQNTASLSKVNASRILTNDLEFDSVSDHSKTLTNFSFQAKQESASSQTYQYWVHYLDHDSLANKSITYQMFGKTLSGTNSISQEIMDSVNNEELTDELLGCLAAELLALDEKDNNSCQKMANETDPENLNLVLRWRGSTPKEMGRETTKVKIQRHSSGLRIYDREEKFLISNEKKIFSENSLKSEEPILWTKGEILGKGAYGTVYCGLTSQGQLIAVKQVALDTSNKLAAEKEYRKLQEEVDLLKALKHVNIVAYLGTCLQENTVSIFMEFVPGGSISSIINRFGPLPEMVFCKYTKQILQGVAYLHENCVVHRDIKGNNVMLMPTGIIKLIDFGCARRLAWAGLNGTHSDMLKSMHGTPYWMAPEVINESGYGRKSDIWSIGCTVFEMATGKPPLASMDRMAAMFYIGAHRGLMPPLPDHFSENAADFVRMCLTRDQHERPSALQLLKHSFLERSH

Row | SMILES | remaining binding at 1 µM (TLK1) | remaining binding at 1 µM (BMPR1A) | remaining binding at 1 µM (PIK3CA) | remaining binding at 1 µM (PIK3CA(Q546K)) | remaining binding at 1 µM (YSK4)
1 | Clc1cc(NCC2CC2)c2ncc(-c3ccc4[nH]ncc4c3)n2n1 [compound 2, 6-Chloro-N-(cyclopropylmethyl)-3-(1H-indazol-5-yl)imidazo[1,2-b]pyridazin-8-amine] | 96% | 95% | 72% | 88% | 45%
2 | O=C(CN1CCOCC1)N[C@H]1CC[C@H](Nc2cc(Cl)nn3c(-c4ccc5[nH]ncc5c4)cnc23)CC1 [compound 26] | 87% | 86% | 97% | 100% | 23%
3 | CN1CCC(CNc2cc(Cl)nn3c(-c4cc5nc(Nc6ccccc6)[nH]c5cc4F)cnc23)CC1 [compound 31, 6-Chloro-3-(6-fluoro-2-(phenylamino)-1H-benzo[d]imidazol-5-yl)-N-((1-methylpiperidin-4-yl)methyl)imidazo[1,2-b]pyridazin-8-amine] | 93% | 100% | 90% | 81% | 77%
